Assay results taken from US20250129021A1, “SMALL MOLECULE PROTEIN SYNTHESIS MODULATORS” (Interdict Bio, Inc., priority 2023, published 2025).

Columns and labels:
Format in all cases: biochemical
MYC = experiment: In vitro transcription-translation (IVTT) assay, MYC reporter; conditions: IVTT assay, HeLa S3 lysate, MYC reporter, normalized sfGFP/mCherry ratio; half-log dilutions 30 μM-0.1 μM, 2 hrs at 30° C.
Procedure, shortened: (§1)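 Reporter: mCherry, P2A, then 3×FLAG-target peptide-sfGFP fusion, IRES-initiated; HeLa S3 lysate IVTT; cpd dilutions 30 μM−0.1 μM half-log in 100% DMSO (dilution-plate conc); DNA added last; 2 h, 30° C; PBS quench.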

CCND1 = experiment: In vitro transcription-translation (IVTT) assay, CCND1 reporter; conditions: IVTT, HeLa S3 lysate, 2 hrs at 30° C.
Procedure, shortened: as §1

MCL-1 = experiment: In vitro transcription-translation (IVTT) assay, MCL-1 reporter; conditions: IVTT, HeLa S3 lysate, 2 hrs at 30° C.; read-out: MCL1 IC50
Procedure, shortened: as §1

CCNE1 = experiment: In vitro transcription-translation (IVTT) assay, CCNE1 reporter; conditions: HeLa S3 lysate, 2 hrs at 30° C.
Procedure: Each preparation takes 8 cell pellets (4 ml packed volume each, approximately 1.0×10^9 cells per pellet). Thaw cell pellets from −80° C. on ice for 90 mins. Lay pellets horizontally on top of the ice and rotate every 30 mins to ensure even thawing. Once thawed, add 4 mL of cold lysis buffer to each pellet, and using a serological pipet, gently pipet up and down to break up clumps. Incubate resuspended cells in ice for an additional 30 mins (plunged into ice). During 30 min incubation, rinse and RNase-zap (Ambion) glass dounces (use loose pestle “A”), gently dry and place on ice until needed. Prepare RNase-free Eppendorf tubes for spinning and for batch storage. Add batch labels to 1.5-1.7 mL RNase-free microcentrifuge tubes (labeling scheme below). Each batch will have an extra 1.5-1.7 mL RNase-free microcentrifuge tube for 40 μL of lysate, label the top of this tube (labeling scheme below). After 30 min incubation, transfer all 8 mL of cell pellet to dounce. Cell lysis is complete after douncing 100 times. Aliquot cell lysis into 1.5-1.7 mL temporary-microcentrifuge tubes. Place tubes in centrifuge with “fins” out, and spin at 1,200×g for 5 mins. After the first spin use a 1 mL pipet to resuspend each tube and repeat spin. This acts as an additional lysis step, is more vigorous and increases lysate yield. During second spin get liquid N2 and a fresh conical tube on ice. After spin is complete, transfer supernatant (lysate) from microcentrifuge tubes into the 50 mL conical tube and keep on ice. Repeat steps 10-14 for all other cell pellets until completed. Once all cell lysate has been transferred to the 50 mL conical tube pipet to mix so the solution is homogenous. Transfer 1 mL of lysate into batch-labeled microcentrifuge tubes and flash freeze in liquid nitrogen. Be sure to pipet up and down to mix throughout transfer step. Place all tubes in the […] for long-term storage.
In vitro transcription-translation assay setup: Each assay includes a master mix containing lysate and shared components, a 96-well plate containing compound titrations for testing, a 96-well DNA plate with reporter constructs to be tested, 96-well skirted PCR plates, and 96-well flat-bottom, black, fluorescent assay plates. Reaction materials setup: (A) Master mix—15 mL conical tube (3 mL of HeLa S3 Lysate described above; 0.6 mL of ThermoFisher Accessory Proteins (#88882); 1.2 ml of ThermoFisher Reaction Mix (#88882); 0.54 mL of nuclease-free Water); (B) 96-Well Master Mix+Compound Plate (Half-log dilutions (30 μM−0.1 μM) of 4 compounds of interest are prepared in 100% DMSO); 96-Well DNA Plate (Five DNA constructs are plated into single columns within the plate. Row 1 of the column contains nuclease free H2O, all other wells contain 110 ng/μL plasmid DNA). Reactions are started by mixing 155 μL of master mix and 3.5 μL of compound serial dilutions, then 9.1 μL of master mix+compound mixture is aliquoted across 5 96-well plates. Reactions begin with final addition of 2 μL of DNA for a 11.1 μL reaction volume in each well. The entire plate is sealed, and incubated for 2 hrs at 30° C. After 2 hrs, quench the assay using 45 μL of PBS, and transfer 50 μL to a flat-bottom black microplate Quantify the sfGFP and mCherry signals from each well on each plate, taking 3 reads of each plate, and perform data analysis below.
In vitro transcription-translation assay data analysis: Each plate is read three times in channels for both sfGFP and mCherry signals. The average signal across these 3 reads is then calculated for further analysis. Control wells containing no DNA reporter are subtracted from reporter wells in the same column to remove auto-fluorescence of the lysate. Then, the ratio of sfGFP/mCherry is calculated per well, and these ratios are averaged across the triplicate experiments on the same plate. Finally, the ratio of each titration concentration is normalized to the no drug control to create the normalized stalling metric. […]

CCNTB1 = experiment: In vitro transcription-translation (IVTT) assay, CCNTB1 reporter; conditions: HeLa S3 lysate, 2 hrs at 30° C.
Procedure, shortened: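 HeLa S3 lysate-based coupled transcription-translation reactions with reporter plasmids, compounds in half-log dilutions (30 μM−0.1 μM, in DMSO), 2 h at 30° C. sfGFP/mCherry ratio, corrected for no-DNA background, normalized to no-drug control and fitted for IC50.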

SMILES	IC50 (CCND1) [µM]	IC50 (MCL-1) [µM]	IC50 (CCNE1) [µM]	IC50 (CCNTB1) [µM]	IC50 (MYC) [µM]
COc1ccc(C[C@H]2NC[C@H](O)[C@H]2OC(=O)NCc2ccnc(N3CCC3)c2)cc1 [V188225, (2R,3S,4S)-4-hydroxy-2-[(4-methoxyphenyl)methyl]pyrrolidin-3-yl N-{[2-(azetidin-1-yl)pyridin-4-yl]methyl}carbamate]	< 10	< 10	< 10	< 10	< 10
O=C(NC[C@H]1CCOC1)O[C@@H]1[C@@H](O)CN[C@@H]1Cc1ccc(Cl)cc1 [V188287, (2R,3S,4S)-2-[(4-chlorophenyl)methyl]-4-hydroxypyrrolidin-3-yl N-[(3R)-oxolan-3-ylmethyl]carbamate]	< 10	< 10	< 10	< 10	< 10
O=C(NCc1cc[nH]c(=O)c1)O[C@@H]1[C@@H](O)CN[C@@H]1Cc1ccc(Cl)cc1 [V188274, (2R,3S,4S)-2-[(4-chlorophenyl)methyl]-4-hydroxypyrrolidin-3-yl N-[(2-oxo-1H-pyridin-4-yl)methyl]carbamate]	< 10	< 10	< 10	< 10	< 10
O=C(NCc1ccc(Cl)cc1)O[C@@H]1[C@@H](O)CN[C@@H]1Cc1ccc(Cl)cc1 [V188273, (2R,3S,4S)-2-[(4-chlorophenyl)methyl]-4-hydroxypyrrolidin-3-yl N-[(4-chlorophenyl)methyl]carbamate]	> 30	–	20 to 30	10 to 20	> 30
O=C(NCc1ccc(F)cc1)O[C@@H]1[C@@H](O)CN[C@@H]1Cc1ccc(Cl)cc1 [V188271, (2R,3S,4S)-2-[(4-chlorophenyl)methyl]-4-hydroxypyrrolidin-3-yl N-[(4-fluorophenyl)methyl]carbamate]	10 to 20	–	< 10	< 10	10 to 20
COc1ccc(C[C@H]2NC[C@H](O)[C@H]2OC(=O)NCCc2ccc(S(=O)(=O)F)cc2)cc1 [V188175, (2R,3S,4S)-4-hydroxy-2-[(4-methoxyphenyl)methyl]pyrrolidin-3-yl N-{2-[4-(fluorosulfonyl)phenyl]ethyl}carbamate]	> 30	–	10 to 20	< 10	10 to 20
O=C(NCC1(F)CC1)O[C@@H]1[C@@H](O)CN[C@@H]1Cc1ccc(Cl)cc1 [V188269, (2R,3S,4S)-2-[(4-chlorophenyl)methyl]-4-hydroxypyrrolidin-3-yl N-[(1-fluorocyclopropyl)methyl]carbamate]	> 30	–	10 to 20	< 10	> 30
O=C(NCc1cccc(F)c1)O[C@@H]1[C@@H](O)CN[C@@H]1Cc1ccc(Cl)cc1 [V188270, (2R,3S,4S)-2-[(4-chlorophenyl)methyl]-4-hydroxypyrrolidin-3-yl N-[(3-fluorophenyl)methyl]carbamate]	10 to 20	–	< 10	< 10	< 10
O=C(NCc1cc(F)cc(F)c1)O[C@@H]1[C@@H](O)CN[C@@H]1Cc1ccc(Cl)cc1 [V188272, (2R,3S,4S)-2-[(4-chlorophenyl)methyl]-4-hydroxypyrrolidin-3-yl N-[(3,5-difluorophenyl)methyl]carbamate]	20 to 30	–	< 10	< 10	10 to 20
O=C(NC[C@@H]1CCOC1)O[C@@H]1[C@@H](O)CN[C@@H]1Cc1ccc(Cl)cc1 [V188288, (2R,3S,4S)-2-[(4-chlorophenyl)methyl]-4-hydroxypyrrolidin-3-yl N-[(3S)-oxolan-3-ylmethyl]carbamate]	20 to 30	–	< 10	< 10	10 to 20

Now from value to compound, other results behind:

IC50 (CCND1) [µM]	IC50 (MCL-1) [µM]	IC50 (CCNE1) [µM]	IC50 (CCNTB1) [µM]	SMILES	IC50 (MYC) [µM]
10 to 20	10 to 20	< 10	< 10	COc1ccc(C[C@H]2NC[C@H](O)[C@H]2OC(=O)NCCn2ccnc2N)cc1 [V188086, (2R,3S,4S)-4-hydroxy-2-[(4-methoxyphenyl)methyl]pyrrolidin-3-yl N-[2-(2-aminoimidazole-1-yl)ethyl]carbamate]	10 to 20
< 10	< 10	< 10	< 10	O=C(NCc1cnoc1)O[C@@H]1[C@@H](O)CN[C@@H]1Cc1ccc(Cl)cc1 [V188289, (2R,3S,4S)-2-[(4-chlorophenyl)methyl]-4-hydroxypyrrolidin-3-yl N-(1,2-oxazol-4-ylmethyl)carbamate]	< 10
< 10	< 10	< 10	< 10	COc1ccc(C[C@H]2NC[C@H](O)[C@H]2OC(=O)NCc2ccc3cn[nH]c3c2)cc1 [V188151, (2R,3S,4S)-4-hydroxy-2-[(4-methoxyphenyl)methyl]pyrrolidin-3-yl N-(1H-indazol-6-ylmethyl)carbamate]	< 10
20 to 30	–	10 to 20	< 10	COc1ccc(C[C@H]2NC[C@H](O)[C@H]2OC(=O)NCCNc2cc[nH]n2)cc1 [V187944, (2R,3S,4S)-4-hydroxy-2-[(4-methoxyphenyl)methyl]pyrrolidin-3-yl N-[2-(1H-pyrazol-3-ylamino)ethyl]carbamate]	10 to 20
< 10	–	< 10	< 10	COc1ccc(C[C@H]2NC[C@H](O)[C@H]2OC(=O)NCc2ccc(S(N)(=O)=O)cc2)cc1 [V188304, (2R,3S,4S)-4-hydroxy-2-[(4-methoxyphenyl)methyl]pyrrolidin-3-yl N-[(4-sulfamoylphenyl)methyl]carbamate]	< 10
< 10	–	< 10	< 10	COc1ccc(C[C@H]2NC[C@H](O)[C@H]2OC(=O)NC[C@H]2CCN(c3nccs3)C2)cc1 [V188170, (2R,3S,4S)-4-hydroxy-2-[(4-methoxyphenyl)methyl]pyrrolidin-3-yl N-{[(3R)-1-(1,3-thiazol-2-yl)pyrrolidin-3-yl]methyl}carbamate]	10 to 20
> 30	–	10 to 20	< 10	COc1ccc(C[C@H]2NC[C@H](O)[C@H]2OC(=O)NC[C@@H]2[C@@H]3CNC[C@@H]32)cc1 [V188161, (2R,3S,4S)-4-hydroxy-2-[(4-methoxyphenyl)methyl]pyrrolidin-3-yl N-[(1R,5S,6S)-3-azabicyclo[3.1.0]hexan-6-ylmethyl]carbamate]	> 30
< 10	–	< 10	< 10	COc1ccc(C[C@H]2NC[C@H](O)[C@H]2OC(=O)NCC2CCS(=O)(=O)C2)cc1 (stereo partly drawn) [V188154, (2R,3S,4S)-4-hydroxy-2-[(4-methoxyphenyl)methyl]pyrrolidin-3-yl N-[(1,1-dioxo-1lambda6-thiolan-3-yl)methyl]carbamate]	< 10
